Test results taken from PubChem BioAssay (NCI).
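Abbreviation: GI50, concentration required for 50% inhibition of growth. TGI denotes the concentration required for complete inhibition of growth.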

Experiments:
Experiment in all cases: NCI tumour cell line growth inhibition, 384-well format
OVCAR-8 ovarian = test system: OVCAR-8 ovarian
UO-31 renal = test system: UO-31 renal
SNB-75 CNS = test system: SNB-75 CNS
UACC-257 melanoma = test system: UACC-257 melanoma
NCI-H322M lung = test system: NCI-H322M lung
NCI-H460 NSCLC = test system: NCI-H460 NSCLC
A549 NSCLC = test system: A549 NSCLC
OVCAR-3 ovarian = test system: OVCAR-3 ovarian
RPMI-8226 leukemia = test system: RPMI-8226 leukemia
HCT-116 colon = test system: HCT-116 colon
NCI/ADR-RES ovarian = test system: NCI/ADR-RES ovarian
HT29 colon = test system: HT29 colon
HOP-92 NSCLC = test system: HOP-92 NSCLC

SMILES | GI50 (OVCAR-8 ovarian) [µM] | TGI (OVCAR-8 ovarian) [µM] | GI50 (UO-31 renal) [µM] | TGI (UO-31 renal) [µM] | GI50 (SNB-75 CNS) [µM] | TGI (SNB-75 CNS) [µM] | GI50 (UACC-257 melanoma) [µM] | TGI (UACC-257 melanoma) [µM] | GI50 (NCI-H322M lung) [µM] | TGI (NCI-H322M lung) [µM] | GI50 (NCI-H460 NSCLC) [µM] | TGI (NCI-H460 NSCLC) [µM] | GI50 (A549 NSCLC) [µM] | TGI (A549 NSCLC) [µM] | GI50 (OVCAR-3 ovarian) [µM] | TGI (OVCAR-3 ovarian) [µM] | GI50 (RPMI-8226 leukemia) [µM] | TGI (RPMI-8226 leukemia) [µM] | GI50 (HCT-116 colon) [µM] | TGI (HCT-116 colon) [µM] | also measured
O=C(Nc1cccc(C(F)(F)F)c1)Nc1cc(S(=O)(=O)NC2CC2)ccc1-c1ccsc1 | 3.73 | 13.4 | 4.17 | 14.9 | 4.25 | 15.6 | 2.89 | 8.51 | 5.66 | 17.2 | 2.4 | 5.08 | 4.02 | 13.7 | 2.42 | 5.79 | 1.88 | 3.36 | 3.17 | 10.6 | GI50 (NCI/ADR-RES ovarian): 6.69 µM; TGI (NCI/ADR-RES ovarian): 18.3 µM; GI50 (HT29 colon): 4.35 µM; TGI (HT29 colon): 14.9 µM; GI50 (HOP-92 NSCLC): 3.36 µM; TGI (HOP-92 NSCLC): 10.5 µM
CN(C)C(=O)c1cc2cnc(Nc3ccc(N4CCNCC4)cn3)nc2n1C1CCCC1 | 37.5 | 74.9 | 13.8 | > 100 | 24.5 | 55 | 47.6 | > 69.7 | 21.3 | 59.5 | 12.3 | > 61.5 | 23.5 | > 84.1 | 33.1 | 61.7 | 0.607 | 27.4 | 7.55 | 23.5 | GI50 (NCI/ADR-RES ovarian): > 100 µM; TGI (NCI/ADR-RES ovarian): > 100 µM; GI50 (HT29 colon): 24.9 µM; TGI (HT29 colon): > 51.6 µM; GI50 (HOP-92 NSCLC): 11.9 µM; TGI (HOP-92 NSCLC): 57.4 µM
COc1cc2nccc(Oc3ccc(NC(=O)C4(C(=O)Nc5ccc(F)cc5)CC4)cc3)c2cc1OC | 3.88 | 14.6 | 3.16 | 9.08 | 1.29 | 4.35 | 4.62 | 12.6 | 3.36 | 16 | 3.14 | 9.27 | 2.46 | 6.13 | 3.36 | 10.2 | 3.09 | 7.73 | 3.78 | 14.2 | GI50 (NCI/ADR-RES ovarian): 2.52 µM; TGI (NCI/ADR-RES ovarian): 9.33 µM; GI50 (HT29 colon): 3.17 µM; TGI (HT29 colon): 12.3 µM; GI50 (HOP-92 NSCLC): 1.29 µM; TGI (HOP-92 NSCLC): 4.93 µM
